Data as given in patent US9771334B2, “Triketone compound and preparation method and use thereof” (SHANDONG CYNDA CHEMICAL CO., LTD., priority 2013, dated 2017).

Key:
Assay type in all cases: in vivo
abutilon theophrasti = assay: Herbicidal activity, pot culture method (primary and secondary screening test); settings: sprayed at 3-leaf stage; for inhibition ratio, Abutilon theophrasti: investigated 15 days later; for herbicidal activity inhibition ratio (%), Abutilon theophrasti: primary screening, pot culture, 150 g/ha, result 15 days later
Summary of the method: (§1)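 Inhibition ratio (%) was scored 15 days after post-emergence spraying of 3-leaf-stage weeds grown in pots of soil:seedling matrix (1:2). Dose was 150 g/ha from a 0.2 g/L DMF/water solution applied by spray tower. The secondary screening used the same method at a reduced dose.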

setaria viridis = assay: as above; settings: sprayed at 3-leaf stage; for inhibition ratio, Setaria viridis: investigated 15 days later; for herbicidal activity inhibition ratio (%), Setaria viridis: primary screening, pot culture, 150 g/ha, result 15 days later
Summary of the method: as §1

digitaria sanguinalis = assay: as above; settings: sprayed at 3-leaf stage; for inhibition ratio, Digitaria sanguinalis: investigated 15 days later; for herbicidal activity inhibition ratio (%), Digitaria sanguinalis: primary screening, pot culture, 150 g/ha, result 15 days later
Summary of the method: as §1

eclipta prostrata = assay: as above; settings: sprayed at 3-leaf stage; for inhibition ratio, Eclipta prostrata: investigated 15 days later; for herbicidal activity inhibition ratio (%), Eclipta prostrata: primary screening, pot culture, 150 g/ha, result 15 days later
Summary of the method: as §1

amaranthus retroflexus = assay: as above; settings: sprayed at 3-leaf stage; for inhibition ratio, Amaranthus retroflexus: investigated 15 days later; for herbicidal activity inhibition ratio (%), Amaranthus retroflexus: primary screening, pot culture, 150 g/ha, result 15 days later
Summary of the method: as §1

echinochloa crusgalli = assay: as above; settings: sprayed at 3-leaf stage; for inhibition ratio, Echinochloa crusgalli: investigated 15 days later; for herbicidal activity inhibition ratio (%), Echinochloa crusgalli: primary screening, pot culture, 150 g/ha, result 15 days later
Summary of the method: as §1

wheat = assay: Crop safety test (pot culture method); settings: plants with about 4-5 leaves, investigated 15 days later
Description: (§2) This test example is for describing crop safety of the compound with a structure shown in Formula (1). Crop safety test method (pot culture method): The test targets are wheat and maize. Take flowerpots with an inner diameter of 12 cm, put composite soil (vegetable garden soil:seedling matrix=1:2, v/v) into them till ¾ of flowerpot height, directly sow the crop seeds (budding rate>85%), cover them with 0.2 cm thick soil, and keep the plants for future use when they grow to have about 4-5 leaves. Each compound is dissolved in N,N-dimethylformamide at doses of 75 g/ha or 150 g/ha and diluted with distilled water containing 0.1% tween-80 emulsifier to form 0.1 g/L (75 g/ha) solution and 0.2 g/L (150 g/ha) solution respectively. The solutions are sprayed through an automatic spray tower. After the solutions on weed leaves are dried in the air, the flowerpots are moved into a greenhouse for cultivation. The result is investigated 15 days later.

maize = assay: Crop safety test (pot culture method); settings: for inhibition ratio, Maize (crop safety): plants with about 4-5 leaves, investigated 15 days later
Description: as §2

| SMILES | inhibition ratio, Abutilon theophrasti (abutilon theophrasti; dose 37.5 g/ha) [%] | inhibition ratio, Abutilon theophrasti (abutilon theophrasti; dose 75 g/ha) [%] | herbicidal activity inhibition ratio (%), Abutilon theophrasti (abutilon theophrasti) [%] | inhibition ratio, Setaria viridis (setaria viridis; dose 37.5 g/ha) [%] | inhibition ratio, Setaria viridis (setaria viridis; dose 75 g/ha) [%] | herbicidal activity inhibition ratio (%), Setaria viridis (setaria viridis) [%] | inhibition ratio, Digitaria sanguinalis (digitaria sanguinalis; dose 37.5 g/ha) [%] | inhibition ratio, Digitaria sanguinalis (digitaria sanguinalis; dose 75 g/ha) [%] | herbicidal activity inhibition ratio (%), Digitaria sanguinalis (digitaria sanguinalis) [%] | inhibition ratio, Eclipta prostrata (eclipta prostrata; dose 37.5 g/ha) [%] | inhibition ratio, Eclipta prostrata (eclipta prostrata; dose 75 g/ha) [%] | herbicidal activity inhibition ratio (%), Eclipta prostrata (eclipta prostrata) [%] | inhibition ratio, Amaranthus retroflexus (amaranthus retroflexus; dose 37.5 g/ha) [%] | inhibition ratio, Amaranthus retroflexus (amaranthus retroflexus; dose 75 g/ha) [%] | herbicidal activity inhibition ratio (%), Amaranthus retroflexus (amaranthus retroflexus) [%] | inhibition ratio, Echinochloa crusgalli (echinochloa crusgalli; dose 37.5 g/ha) [%] | inhibition ratio, Echinochloa crusgalli (echinochloa crusgalli; dose 75 g/ha) [%] | herbicidal activity inhibition ratio (%), Echinochloa crusgalli (echinochloa crusgalli) [%] | inhibition ratio, Wheat (crop safety) (wheat; dose 75 g/ha) [%] | inhibition ratio, Wheat (crop safety) (wheat; dose 150 g/ha) [%] | also measured |
| --- | --- | --- | --- | --- | --- | --- | --- | --- | --- | --- | --- | --- | --- | --- | --- | --- | --- | --- | --- | --- | --- |
| Cn1c(=O)n(-c2ccccc2Cl)c(=O)c2cc(C(=O)C3=C(O)CCCC3=O)ccc21 [Compound 5] | 60 | 70 | 85 | 60 | 90 | 100 | 40 | 90 | 100 | 30 | 40 | 80 | 60 | 75 | 80 | 60 | 90 | 80 | 0 | 0 | inhibition ratio, Maize (crop safety) (maize; dose 75 g/ha): 0%; inhibition ratio, Maize (crop safety) (maize; dose 150 g/ha): 15% |
| Cn1c(=O)n(-c2ccccc2Cl)c(=O)c2cc(C(=O)C3=C(O)CC(C)(C)CC3=O)ccc21 [Compound 6] | 70 | 70 | 100 | 60 | 60 | 90 | 60 | 70 | 75 | 70 | 70 | 85 | 70 | 75 | 80 | 70 | 75 | 80 | 0 | 0 | inhibition ratio, Maize (crop safety) (maize; dose 75 g/ha): 0%; inhibition ratio, Maize (crop safety) (maize; dose 150 g/ha): 15% |
| Cc1ccccc1-n1c(=O)c2cc(C(=O)C3=C(O)CCCC3=O)ccc2n(C)c1=O [Compound 20] | 30 | 85 | 100 | 50 | 70 | 100 | 40 | 70 | 100 | 50 | 50 | 95 | 50 | 60 | 100 | 50 | 60 | 100 | 0 | 0 | inhibition ratio, Maize (crop safety) (maize; dose 75 g/ha): 0%; inhibition ratio, Maize (crop safety) (maize; dose 150 g/ha): 15% |
| Cc1ccccc1-n1c(=O)c2cc(C(=O)C3=C(O)CC(C)(C)CC3=O)ccc2n(C)c1=O [Compound 21] | 70 | 100 | 85 | 70 | 75 | 100 | 70 | 75 | 85 | 40 | 50 | 95 | 80 | 90 | 100 | 70 | 75 | 85 | 0 | 0 | inhibition ratio, Maize (crop safety) (maize; dose 75 g/ha): 0%; inhibition ratio, Maize (crop safety) (maize; dose 150 g/ha): 15% |
| Cn1c(=O)n(-c2cccc(Br)c2)c(=O)c2cc(C(=O)C3=C(O)CCCC3=O)ccc21 [Compound 23] | 100 | 100 | 85 | 30 | 50 | 45 | 20 | 65 | 30 | 100 | 100 | 50 | 100 | 100 | 95 | 20 | 20 | 85 | 0 | 5 | inhibition ratio, Maize (crop safety) (maize; dose 75 g/ha): 0%; safety to maize fields (in words) (maize; dose 150 g/ha): highly safe; inhibition ratio, Maize (crop safety) (maize; dose 150 g/ha): 0% |
| Cc1cccc(C)c1-n1c(=O)c2cc(C(=O)C3=C(O)CCCC3=O)ccc2n(C)c1=O [Compound 34] | 30 | 50 | 90 | 70 | 78 | 80 | 55 | 75 | 83 | 30 | 50 | 80 | 100 | 100 | 100 | 65 | 80 | 90 | 0 | 5 | inhibition ratio, Maize (crop safety) (maize; dose 75 g/ha): 0%; safety to maize fields (in words) (maize; dose 150 g/ha): highly safe; inhibition ratio, Maize (crop safety) (maize; dose 150 g/ha): 0% |
| CCc1ccccc1-n1c(=O)c2cc(C(=O)C3=C(O)CCCC3=O)ccc2n(C)c1=O [Compound 47] | 60 | 90 | 100 | 88 | 90 | 83 | 80 | 85 | 95 | 20 | 30 | 85 | 90 | 95 | 100 | 80 | 88 | 85 | 0 | 0 | inhibition ratio, Maize (crop safety) (maize; dose 75 g/ha): 0%; safety to maize fields (in words) (maize; dose 150 g/ha): highly safe; inhibition ratio, Maize (crop safety) (maize; dose 150 g/ha): 0% |
| CC(C)c1ccccc1-n1c(=O)c2cc(C(=O)C3=C(O)CCCC3=O)ccc2n(C)c1=O [Compound 97] |  |  | 98 |  |  | 50 |  |  | 50 |  |  | 90 |  |  | 100 |  |  | 55 |  |  |  |
| Cc1cccc(C)c1-n1c(=O)c2cc(C(=O)C3=C(O)CC(C)(C)CC3=O)ccc2n(C)c1=O [Compound 98] |  |  | 100 |  |  | 80 |  |  | 50 |  |  | 88 |  |  | 100 |  |  | 85 |  |  |  |
